The values that follow come from US9840478B2 (MERCK SHARP & DOHME CORP., priority 2013, dated 2017).

Where two headings read alike, the source gives them in different places.

Assay [1] has as its target T1, wildtype HIV-1 protease (Human immunodeficiency virus type 1 group M subtype B, UniProt P04585).
T1 construct: preincubated with the HIV-1 protease (wild type) enzyme in assay buffer; made in house; host or cells: Escherichia coli
The assay can be described thus: Assay for inhibition of microbial expressed HIV protease (Pepcleav). Format: biochemical. Particulars: wildtype HIV-1 protease expressed in E. coli; peptide substrate; mean of at least two independent experiments. As for the experimental part: Assay for Inhibition of Microbial Expressed HIV Protease (“Pepcleav”)
Studies of the inhibition of the wildtype HIV-1 protease (which was expressed in Escherichia coli) were carried out with a peptide substrate [Val-Ser-Gln-Asn-(βnaphtyl)Ala-Pro-Ile-Val]. The inhibitor is first preincubated with the HIV-1 protease (wild type) enzyme in assay buffer (50 mM sodium acetate, pH 5.5, 100 mM NaCl, and 0.1% BSA) for 30 minutes at room temperature. Substrate is added to 400 micromolar in a total volume of 20 microliters containing 20 picomolar HIV-1 protease (final) and the reaction is incubated for 1 hour at 30° C. The reaction is quenched with the addition of formic acid and indinavir to 0.012% and 150 nM final concentrations, respectively. The product formation is determined after separation of product and substrate on a Zorbax Eclipse XDB-C18 column connected to an API 4000 mass spectrometer (Applied Biosystems) with multiple reaction monitoring (transitions were 644.5/428.9 and 615.4/422.2 (M1/M3) for product and indinavir respectively). The extent of inhibition of the reaction is determined from the peak area of the products. Analysis of the products, independently synthesized, provided quantitation standards and confirmation of the product composition.

The test system of assay [2] is HIV-1 (H9IIIB strain). Description: Cell-based HIV infection assay using a reporter (Cell-Based), MT4-GFP cells. Particulars: 50% normal human serum, mean of at least two independent experiments, read-out: Cell-based IP. The method in brief: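 IC50 from 4-parameter dose-response of % viral growth inhibition, using the 48 h/24 h infected-cell ratio scaled between DMSO and a protease/integrase/NNRTI triple-drug control. Assay used MT4 cells with HIV-LTR-GFP reporter, pre-infected 24 h with HIV-1 H9IIIB, in 50% normal human serum.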

[3] abbreviates: Human immunodeficiency virus 1, MT4-GFP cells infected with HIV-1 H9IIIB.

Consider `CS(=O)(=O)N1CCNC[C@@H]1CCc1c(F)cncc1NC(=O)[C@@H](N)C(c1ccc(F)cc1)c1ccc(F)cc1` [Example 1, 2S-Amino-3,3-di-(4-fluorophenyl)-N-(5-fluoro-4-(2-(1-methylsulfonylpiperazin-2-yl)ethyl)pyridin-3-yl)propanamide], for which the IC50 amounted to 9.7 nM in assay [1] and 67 nM in assay [2] (setting [3]).

Take `COC(=O)N[C@H](C(=O)Nc1cccc(F)c1CC[C@H]1CNCCN1S(=O)(=O)c1ccccc1)C(c1cccc(F)c1)c1cccc(F)c1` [Example 3, Methyl ((S)-1-((3-fluoro-2-(2-((S)-1-(phenylsulfonyl)piperazin-2-yl)ethyl)phenyl)amino)-3,3-bis(3-fluorophenyl)-1-oxopropan-2-yl)carbamate]: the IC50 stood at 0.48 nM in assay [1] and 4 nM in assay [2] (setting [3]).

For the molecule `N[C@H](C(=O)Nc1cncc(F)c1CC[C@H]1CNCCN1S(=O)(=O)c1ccccc1)C(c1ccc(F)cc1)c1ccc(F)cc1` [Example 22, (S)-2-amino-N-(5-fluoro-4-(2-((S)-1-(phenylsulfonyl)piperazin-2-yl)ethyl)pyridin-3-yl)-3,3-bis(4-fluorophenyl)propanamide], the IC50 in assay [1] turned out to be 0.2 nM; in assay [2] (setting [3]), 10 nM.

With `N[C@H](C(=O)Nc1cccc(F)c1CC[C@H]1CNCCN1S(=O)(=O)c1ccccc1)C(c1cccc(F)c1)c1cccc(F)c1` [Example 40, 3-fluoro-β-(3-fluorophenyl)-N-(3-fluoro-2-{2-[(2S)-1-(phenylsulfonyl)piperazin-2-yl]ethyl}phenyl)-L-phenylalaninamide], the IC50 in assay [1] was determined as 0.03 nM; in assay [2] (setting [3]), 4.8 nM.

Regarding `CC(C)[C@H](c1ccc(F)cc1)[C@H](N)C(=O)Nc1cncc(F)c1CC[C@H]1CNCCN1S(=O)(=O)C1CC1` [Example 64, (βR)-N-(4-{2-[(2S)-1-(cyclopropylsulfonyl)piperazin-2-yl]ethyl}-5-fluoropyridin-3-yl)-4-fluoro-β-(1-methylethyl)-L-phenylalaninamide], the figures for the IC50 in assay [1] and in assay [2] (setting [3]) were 70 nM and 95 nM, respectively.

Turning to `C[C@H]1CNC[C@H](CCc2c(F)cccc2NC(=O)[C@@H](N)[C@@H](c2ccc(F)cc2)c2cc(F)cc(F)c2)N1S(C)(=O)=O` [Example 96, (βS)-β-(3,5-difluorophenyl)-4-fluoro-N-(3-fluoro-2-{2-[(2S,6S)-6-methyl-1-(methylsulfonyl)piperazin-2-yl]ethyl}phenyl)-L-phenylalaninamide], the values for the IC50 in assay [1] and in assay [2] (MT4-GFP cells infected with HIV-1 H9IIIB) were 6.1 nM and 24 nM, respectively.

For the molecule `O=C(C[C@@H](c1ccc(F)cc1)c1cc(F)cc(F)c1)Nc1cncc(F)c1CC[C@H]1CNCCN1S(=O)(=O)C1CC1` [Example 303, (3S)-N-(4-{2-[(2S)-1-(cyclopropylsulfonyl)piperazin-2-yl]ethyl}-5-fluoropyridin-3-yl)-3-(3,5-difluorophenyl)-3-(4-fluorophenyl)propanamide], the IC50 in assay [1] is 5 nM; in assay [2] (setting [3]), 14 nM.

On to `CS(=O)(=O)NC1CCN(S(=O)(=O)N2CCNC[C@@H]2CCc2c(F)cncc2NC(=O)C[C@@H](c2ccc(F)cc2)c2cc(F)cc(F)c2)CC1` [Example 334, (3S)-3-(3,5-difluorophenyl)-N-(5-fluoro-4-{2-[(2S)-1-({4-[(methylsulfonyl)amino]piperidin-1-yl}sulfonyl)piperazin-2-yl]ethyl}pyridin-3-yl)-3-(4-fluorophenyl)propanamide], for which the IC50 in assay [1] came out at 10 nM; in assay [2] (setting [3]), 450 nM.

As to `CC(=O)NC1CCN(S(=O)(=O)N2CCNC[C@@H]2CCc2c(F)cncc2NC(=O)C[C@@H](c2ccc(F)cc2)c2cc(F)cc(F)c2)CC1` [Example 335, (3S)-N-(4-{2-[(2S)-1-{[4-(acetylamino)piperidin-1-yl]sulfonyl}piperazin-2-yl]ethyl}-5-fluroopyridin-3-yl)-3-(3,5-difluorophenyl)-3-(4-fluorophenyl)propanamide], the figures for the IC50 in assay [1] and in assay [2] (setting [3]) were 24 nM and 650 nM, respectively.

As for `CS(=O)(=O)C1CCN(S(=O)(=O)N2CCNC[C@@H]2CCc2c(F)cncc2NC(=O)C[C@@H](c2ccc(F)cc2)c2cc(F)cc(F)c2)CC1` [Example 336, (3S)-3-(3,5-difluorophenyl)-N-(5-fluoro-4-{2-[(2S)-1-{[4-(methylsulfonyl)piperidin-1-yl]sulfonyl}piperazin-2-yl]ethyl}pyridin-3-yl)-3-(4-fluorophenyl)propanamide], the IC50 in assay [1] stood at 13 nM; in assay [2] (setting [3]), 240 nM.

Regarding `O=C(C[C@@H](c1ccc(F)cc1)c1cc(F)cc(F)c1)Nc1cncc(F)c1CC[C@H]1CNCCN1S(=O)(=O)N1CC[C@@H](NC(=O)C(F)(F)F)C1` [Example 338, (3S)-3-(3,5-difluorophenyl)-3-(4-fluorophenyl)-N-(5-fluoro-4-{2-[(2S)-1-({(3R)-3-[(trifluoroacetyl)amino]pyrrolidin-1-yl}sulfonyl)piperazin-2-yl]ethyl}pyridin-3-yl)propanamide], the figures for the IC50 in assay [1] and in assay [2] (setting [3]) were 130 nM and 660 nM, respectively.
